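1) Cells in 96-well plates. 2) Compound, 48 h, 5 concentrations. 3) Linear interpolation between surrounding doses. 4) Unreached endpoint = highest concentration. GI50 marks 50% less growth. At the TGI there is no net growth.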
Assays:
Assay in all cases: NCI anticancer screen, dose series, 48 h
A498 renal = tested on: A498 renal
A549 NSCLC = tested on: A549 NSCLC
COLO 205 colon = tested on: COLO 205 colon
HCT-116 colon = tested on: HCT-116 colon
MALME-3M melanoma = tested on: MALME-3M melanoma
MOLT-4 leukemia = tested on: MOLT-4 leukemia
OVCAR-4 ovarian = tested on: OVCAR-4 ovarian
U251 CNS = tested on: U251 CNS
NCI-H460 lung = tested on: NCI-H460 lung
PC-3 prostate = tested on: PC-3 prostate

Row | Compound | GI50 (A498 renal) [µM] | TGI (A498 renal) [µM] | GI50 (A549 NSCLC) [µM] | TGI (A549 NSCLC) [µM] | GI50 (COLO 205 colon) [µM] | TGI (COLO 205 colon) [µM] | GI50 (HCT-116 colon) [µM] | TGI (HCT-116 colon) [µM] | GI50 (MALME-3M melanoma) [µM] | TGI (MALME-3M melanoma) [µM] | GI50 (MOLT-4 leukemia) [µM] | TGI (MOLT-4 leukemia) [µM] | GI50 (OVCAR-4 ovarian) [µM] | TGI (OVCAR-4 ovarian) [µM] | GI50 (U251 CNS) [µM] | TGI (U251 CNS) [µM] | TGI (NCI-H460 lung) [µM] | GI50 (NCI-H460 lung) [µM] | GI50 (PC-3 prostate) [µM] | TGI (PC-3 prostate) [µM]
1 | CN(C)CCC(N)(P(=O)([O-])[O-])P(=O)([O-])[O-].N.N.[Pt+2] | > 100 | > 100 | > 100 | > 100 | > 100 | > 100 | > 100 | > 100 | > 100 | > 100 | > 100 | > 100 | > 100 | > 100 | > 100 | > 100 |  |  |  | 
2 | C/C(=N/NC(=O)c1ccccc1S(N)(=O)=O)C(CN1CCCCC1)C(C1=C(O)C2C=CC=CC2OC1=O)c1ccccc1 (centres undefined) |  | > 100 |  | > 100 |  | 41.3 |  | > 100 |  | > 100 |  |  |  | > 100 |  | > 100 | > 100 |  |  | 
3 | Cc1cc(N(CCC#N)CCC#N)ccc1/C=C(\NC(=O)/C=C/c1ccccc1)C(=O)N=[N+]=[N-] |  | > 100 |  | > 100 |  | > 100 |  | > 100 |  | > 100 |  | > 100 |  |  |  | > 100 | > 100 |  |  | 
4 | C/C(CN1C(=O)c2ccccc2C1=O)=N\NS(=O)(=O)c1ccc2ccccc2c1 |  | > 100 |  | > 100 |  | > 100 |  | > 100 |  | > 100 |  | > 100 |  | > 100 |  | > 100 | > 100 |  |  | 
5 | O=C(CCc1nnc2s/c(=C\c3ccc([N+](=O)[O-])cc3)c(=O)n12)Nc1ccc(Cl)c(Cl)c1 |  | > 100 |  | > 100 |  | 82.9 |  | > 100 |  | 98 |  | 51.5 |  | 35.1 |  | 31.2 | > 100 |  |  | 
6 | NC(N)NCCCc1cn2c(n1)C1CCCN1C(=O)C2Cc1ccccc1 (centres undefined) |  | > 100 |  | > 100 |  | > 100 |  | > 100 |  | > 100 |  | > 100 |  | > 100 |  | > 100 | > 100 |  |  | 
7 | O=c1[nH]c2ccccc2n1C1CCNCC1 | 24.4 | > 100 | > 100 | > 100 | > 100 | > 100 | > 100 | > 100 |  |  | > 100 | > 100 | > 100 | > 100 | > 100 | > 100 | > 100 | > 100 | > 100 | > 100
8 | CC(C)(CN1CCCCC1)C(=O)/C=C/c1ccccc1 |  | 57.8 |  | 52.7 |  | 40.9 |  | 28.6 |  | 30.3 |  | 41.4 |  | 73.9 |  | 57 | 66.9 |  |  | 
9 | C=CCC1(O)c2ccccc2C(=O)c2c(OCC(=O)OCC)ccc(OCC(=O)OCC)c21 (centres undefined) | > 100 | > 100 | > 100 | > 100 | > 100 | > 100 | > 100 | > 100 |  |  | 51 | > 100 | > 100 | > 100 | 81 | > 100 | > 100 | 84.9 | > 100 | > 100
